A word on the pIC50: it is −log10 of the IC50, conventionally taken in molar units.

pIC50: −log10 of the molar value. “Also recorded” adds a separate entry of the source.

The conditions of series [1]: doses for FDA-approved treatments (cancer patients); cited from earlier work.
For series [2], the system named is CCI-TBI in rats. The series is described as follows: Elevated body swing test after CCI-TBI. The series is classed as in vivo, rat. The conditions noted are these: 2 mg/kg i.p. single dose at 0 or 3 hrs post-TBI, 24 hrs after TBI, vs TBI/vehicle, P<0.05.
For series [3], the system named is TBI (moderate lateral fluid percussion) in adult male Sprague-Dawley rats. The series is described as follows: Morris Water Maze after moderate lateral fluid percussion TBI. The series is classed as in vivo, rat. The conditions noted are these: LFP-TBI, 2 mg/kg i.p. single dose immediately after TBI, days 12 through 16 after TBI, vs TBI/vehicle, P<0.05.
Experimental: Moderate Lateral fluid percussion (LFP) was used to produce TBI in adult male Sprague-Dawley rats (weighing 300-350 grams). […] All of the following data were obtained using moderate LFP in adult rats. […] Sham and vehicle control animals received 5% DMSO in 0.9% saline. Morris Water Maze (MWM). Spatial memory was assessed using the MWM on days 12 through 16 after TBI. […] In brief rats were released from one of four starting points and allowed 120 s to find the escape platform. Rats received a total of 4 trials per day, one from each starting point, over 5 consecutive days. Behavioral assessments were performed by an individual blinded to the treatment groups. Mean latency to find the platform was calculated for each day to assess learning as well as the mean swimming speed to assess motor function. Statistical differences were determined using repeated measures ANOVA followed by Dunnett's post hoc test.
In series [4] the test system is CCI-TBI in rats, ipsilateral hippocampal CA2-3 neurons. In words: NeuN-positive hippocampal CA2-3 neuron counts after CCI-TBI. The settings on record: 2 mg/kg single dose at 0, 3 or 6 hrs post-TBI, 24 hrs after TBI, vs TBI/vehicle, P<0.05 or P<0.01. The series is classed as in vivo, rat. The protocol: Brain sample preparation and immunohistochemistry. Anesthetized rats were perfused with saline followed by 4% PFA at day 1 or day 16. Brain sections (50 μm) are cut at −20° C. and incubated in 0.3% H2O2 for 10 minutes to quench endogenous peroxidase, incubated with 3% horse blocking serum for 20 minutes, and then incubated overnight in primary antibody (mouse anti-NeuN, mature neuron marker, 1:150, Millipore), then in biotinylated secondary antibody (Goat anti-mouse 1:1,000, Vector) for 0.5 h, then placed in Vectastain ABC reagent for 0.5 hr and incubated in peroxidase substrate 3, 3′-diaminobenzidine (DAB) solution for 10 min.
Stereological cell counts. The total number of NeuN-positive neurons in CA2-3 of hippocampus were quantified bilaterally using stereological methods. The NeuN-positive cell counts were performed on a microscope (Nikon E600, Nikon) using commercial software (Stereo Investigator™8.0, Microbrightfield, Inc.). Serial sections cut at 50 μm thick were collected at Bregma −2.80 mm to Bregma −4.16 mm for a total of 10 sections per brain. […] Statistical differences are determined using ANOVA followed by Dunnett's post hoc test.
Methods: One day after controlled cortical impact (CCI)-TBI, rats were anesthetized and transcardially perfused with PBS followed by 4% PFA. […] The NeuN^+ cells in ipsilateral hippocampal CA2-3 were quantified (n=4-8).

Series [5] concerns the target c-Kit (Homo sapiens, UniProt P10721). The conditions noted are these: target kinase c-Kit; cell-free; read-out: IC50 (nm) in vitro; cited from earlier work.

Chain of c-Kit (P10721 26-976): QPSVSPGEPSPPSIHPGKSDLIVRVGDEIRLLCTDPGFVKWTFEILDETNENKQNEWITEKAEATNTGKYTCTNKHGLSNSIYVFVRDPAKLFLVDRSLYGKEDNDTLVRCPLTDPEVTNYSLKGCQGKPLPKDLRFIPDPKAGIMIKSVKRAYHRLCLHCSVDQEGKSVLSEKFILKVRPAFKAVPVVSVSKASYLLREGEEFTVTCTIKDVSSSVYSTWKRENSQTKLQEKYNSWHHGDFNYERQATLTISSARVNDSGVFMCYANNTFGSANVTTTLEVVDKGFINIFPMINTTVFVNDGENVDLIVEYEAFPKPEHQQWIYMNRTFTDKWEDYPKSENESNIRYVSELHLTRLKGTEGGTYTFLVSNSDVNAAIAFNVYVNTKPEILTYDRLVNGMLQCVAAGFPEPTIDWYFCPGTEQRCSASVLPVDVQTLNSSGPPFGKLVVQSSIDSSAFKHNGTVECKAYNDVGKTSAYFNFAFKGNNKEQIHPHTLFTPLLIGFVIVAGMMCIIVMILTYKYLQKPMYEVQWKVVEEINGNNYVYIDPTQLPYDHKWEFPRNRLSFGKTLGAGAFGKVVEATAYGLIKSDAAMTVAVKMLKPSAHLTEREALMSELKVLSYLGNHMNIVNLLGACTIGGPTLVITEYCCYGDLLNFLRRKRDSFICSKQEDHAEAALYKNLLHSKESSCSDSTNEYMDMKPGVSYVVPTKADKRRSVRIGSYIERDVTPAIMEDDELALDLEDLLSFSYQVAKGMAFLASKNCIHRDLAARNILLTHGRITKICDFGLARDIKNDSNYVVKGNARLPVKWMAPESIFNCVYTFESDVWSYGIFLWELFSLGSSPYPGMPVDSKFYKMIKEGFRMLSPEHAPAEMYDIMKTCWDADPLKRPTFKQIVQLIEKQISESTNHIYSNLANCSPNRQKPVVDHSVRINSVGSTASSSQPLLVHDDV

Regarding `COc1cc(Nc2c(C#N)cnc3cc(OCCCN4CCN(C)CC4)c(OC)cc23)c(Cl)cc1Cl` [Bosutinib], in series [1], the “Common Side effects when used at the doses for FDA-approved treatments” value (“Common Side effects when used” for short) was “Diarrhea, Nausea, Thrombocytopeniasorder, Vomiting, Kidney disease with; also recorded: reduction in GFR, Skin rash, Anemia, Fever, Fatigue, Neutropenic disorder,; also recorded: Abnormal hepatic function tests, Upper respiratory infection, Lower respiratory; also recorded: infection, General weakness, Anorexia, Pharyngitis, Back pain, Headache disorder,; also recorded: Dizziness, Dyspnea”. `Cc1cn(-c2cc(NC(=O)c3ccc(C)c(Nc4nccc(-c5cccnc5)n4)c3)cc(C(F)(F)F)c2)cn1` [Nilotinib]: in series [1], the “Common Side effects when used” value is listed as “Hypocalcemia, Hyponatremia, Back pain, Hyperkalemia, Hypokalemia,; also recorded: Pancytopenia, Anemia, Thrombocytopenia disorder, Leukopenia, Neutropenic; also recorded: disorder, Elevated serum lipase, Hypertension, Prolonged QT interval, Pharyngitis,; also recorded: Constipation, Muscle spasm, Pruritus of skin, Arthralgia, Myalgia, Vertigo”. Consider `Cc1ccc(C(=O)Nc2ccc(CN3CCN(C)CC3)c(C(F)(F)F)c2)cc1C#Cc1cnc2cccnn12` [Ponatinib], for which the “Common Side effects when used” value in series [1] is given as “Thromboembolic disorder, Arterial thrombosis, Hypertension, Thrombocytopenic; also recorded: disorder, Neutropenic disorder, Anemia, Skin rash, Leukopenia, Acute abdominal; also recorded: pain, Fatigue, Headache disorder, Dry skin, Constipation, Arthralgia, Nausea,; also recorded: Fever, Lymphopenia, Bone marrow depression, Diarrhea, Vomiting”. `Cn1cc(-c2cc3c(N4CCN(c5ncc([C@@](C)(N)c6ccc(F)cc6)cn5)CC4)ncnn3c2)cn1` [Avapritinib]: the “Common Side effects when used” value in series [1] is given as “Edema, Nausea, Fatigue, General weakness, Acute confusion, Vomiting, Anorexia,; also recorded: Diarrhea, Hair discoloration, Eye tearing, Acute abdominal pain, Constipation, Skin; also recorded: rash, Dizziness, Anemia, Leukopenia”. For `CCN(CC)CCNC(=O)c1c(C)[nH]c(/C=C2\C(=O)Nc3ccc(F)cc32)c1C` [Sunitinib], the “Common Side effects when used” value in series [1] is recorded as “Increased risk of bleeding, Pain in extremities, Peripheral edema, Back pain,; also recorded: Hypertension, Chronic heart failure; also recorded: Stomatitis, Dyspepsia, Constipation, Dry skin, Dyschromia, Arthralgia, Headache; also recorded: disorder, Dizziness, Fever, Fatigue, General weakness, Dysgeusia, Skin rash,; also recorded: Anorexia”. For `FC(F)(F)c1ccc(CNc2ccc(Cc3c[nH]c4ncc(Cl)cc34)cn2)cn1` [Pexidartinib], the “Common Side effects when used” value in series [1] is listed as “Blurred vision, decreased appetite, dizziness, fever, headache, itching or skin rash,; also recorded: fast heartbeat, swelling of the feet or lower legs”. Take `CNC(=O)c1cc(Oc2ccc(NC(=O)Nc3ccc(Cl)c(C(F)(F)F)c3)cc2)ccn1` [Sorafenib]: the “Common Side effects when used” value in series [1] was “Hypophosphatemia, Anemia, Thrombocytopenia disorder, Leukopenia,; also recorded: Neutropenic disorder, Lymphopenia, Depression, Peripheral neuropathy,; also recorded: Hypertension, Hemorrhage, Stomatitis, Dyspepsia, Constipation, Gastrointestinal; also recorded: hemorrhage, Erectile dysfunction, Eczema, Exfoliative dermatitis, Erythema,; also recorded: Pruritus of skin, Alopecia”. On to `CNC(=O)c1cc(Oc2ccc(NC(=O)Nc3ccc(Cl)c(C(F)(F)F)c3)c(F)c2)ccn1` [Regorafenib], for which the “Common Side effects when used” value in series [1] is reported as “Hypertension, Impaired wound healing, General weakness, Fatigue, Anorexia,; also recorded: Palmar-plantar erythrodysesthesia, Diarrhea, Stomatitis, Weight loss, Infection,; also recorded: Voice change, Hemorrhage, Fever, Skin rash, Headache disorder,; also recorded: Hypophosphatemia, Pain, Nausea, Acute abdominal pain, Anemia”. On to `CCn1c(=O)c(-c2cc(NC(=O)Nc3ccccc3)c(F)cc2Br)cc2cnc(NC)cc21` [Ripretinib], for which the “Common Side effects when used” value in series [1] was “Alopecia, Fatigue, Nausea, Acute abdominal pain, Constipation, Myalgia, Diarrhea,; also recorded: Anorexia, Palmar-plantar erythrodysesthesia, Vomiting, Elevated serum lipase,; also recorded: Hypophosphatemia”.

In the case of `Cc1nc(Nc2ncc(C(=O)Nc3c(C)cccc3Cl)s2)cc(N2CCN(CCO)CC2)n1` [Dasatinib], in series [2], the “motor imbalance (biased swinging) in elevated body swing test” value is listed as “significantly mitigated motor imbalance; also recorded: mitigates motor imbalance”. For the same compound, the “latency to find the platform in the Morris Water Maze (spatial memory)” value in series [3] is reported as “significantly improved performance; also recorded: reduces spatial memory deficits”. Moreover, in series [1], the “Common Side effects when used” value is “Fever, Fatigue, Malaise; also recorded: Infection, Hypophosphatemia, Hypocalcemia, Body fluid retention, Anemia,; also recorded: Thrombocytopenia disorder, Neutropenic disorder, Peripheral neuropathy,; also recorded: Hemorrhage, Upper respiratory infection, Pleural effusions, Stomatitis,; also recorded: Constipation, Gastrointestinal hemorrhage, Pruritus of skin, Arthralgia, Dizziness,”. Moreover, in series [4], the “survival of NeuN+ CA2-3 neurons in ipsilateral hippocampus” value is listed as “significantly promotes survival of CA2-3 neurons; also recorded: decreases CA2-3 neuronal loss”. For the compound `Cc1ccc(Nc2nccc(N(C)c3ccc4c(C)n(C)nc4c3)n2)cc1S(N)(=O)=O` [Pazopanib], in series [1], the “Common Side effects when used” value is given as “Nausea, Vomiting, Diarrhea, Thrombocytopenia disorder, Leukopenia, Neutropenic; also recorded: disorder, Alopecia, Hypertension, Fatigue, Hemorrhage, General weakness, Skin; also recorded: rash, Proteinuria, Anorexia, Weight loss, Headache disorder, Hair bleaching, Pain,; also recorded: Myalgia, Thrombotic disorder”. Turning to `COc1cc2nccc(Oc3ccc(NC(=O)NC4CC4)c(Cl)c3)c2cc1C(N)=O` [Lenvatinib], the negative-log IC50 (pIC50) in series [5] is 7.00.
